Counter-ions that a name gives are not always drawn.
Columns and labels:
Escherichia coli 205 = test: systemic infection in mice, survival, Escherichia coli 205; type: in vivo; conditions: fifth day
Method: (§1) The combination substances A and B are diluted in 1:3 to 1:3.3 steps such that the average concentration contains the respective amount of substance A and substance B corresponding to the ED50.
(§2) Female MF 2 mice weighing 18 to 22 g are divided at random into groups (n=20) and infected intraperitoneally with a standardised bacteria suspension which, according to strain, represents 5 to >20 LD50.
(§3) Immediately after the infection, and 3 hours later, the mice are treated in groups subcutaneously with dilutions of substances A and B as well as with combinations thereof. These combinations are prepared shortly before administration by mixing each dilution of substance A with each dilution of substance B. The survival rates are determined on the fifth day after the infection. The survival rates of mice which are determined with each of substances A and B alone are compared with those obtained with the combinations of these substances. A combination which has protected more animals from death than would be expected from the independent action of the substances, is designated as having synergistic action.
(§4) The survival rates, expressed as percentages of surviving animals, found in infections with a number of pure micro-organisms and in polyinfections is reported in Table 2 for cefsulodin sodium, mecillinam, mezlocillin, gentamicin and CGP 14 221/E, as well as for corresponding mixtures.

[1] = tested on: Pseudomonas aeruginosa 1140; test: in vitro MIC, chessboard microdilution, Pseudomonas aeruginosa 1140; type: cell-based
Method: (§5) The combination substances A and B are diluted in DST broth OXOID in chessboard arrangement with the aid of microtitre system in 1:2 steps. All the concentrations of substance A are combined with all the concentrations of substance B and then inoculated with a standardised bacteria suspension (final concentration about 10^4 bacilli/ml). After incubation for 18 hours at 37° C., the inhibition of the bacterial growth is determined. The inhibiting concentrations are converted by the method of Kerry et al. (J. Antimicrob. […] By way of example, a number of the MIC values for the action of cefsulodin sodium, mecillinam, mezlocillin and gentamicin alone against a number of micro-organisms, as well as the MIC values for a number of mixtures in which synergism occurs, are reported in Table 1.

[2] = tested on: Gram-negative cocci, Gram-positive cocci and bacteria, and especially against Pseudomonas strains; conditions: carbenicillin-sensitive and carbenicillin-resistant Pseudomonas; cited from earlier work
[3] = tested on: Kiebsiella pneumoniae 1132; test: in vitro MIC, chessboard microdilution, Klebsiella pneumoniae 1132; type: cell-based
Method: as §5

Staphylococcus aureus = test: in vitro MIC, chessboard microdilution, Staphylococcus aureus; type: cell-based
Method: as §5

[4] = tested on: Pseudomonas aeruginosa G 121; test: in vitro MIC, chessboard microdilution, Pseudomonas aeruginosa G 121; type: cell-based
Method: as §5

[5] = tested on: enterobacteria, such as Escherichia coli and Klebsiella pneumoniae; conditions: cited from earlier work
[6] = tested on: Pseudomonas aeruginosa 799A; test: in vitro MIC, chessboard microdilution, Pseudomonas aeruginosa 799A; type: cell-based
Method: as §5

[7] = tested on: Pseudomonas aeruginosa + Klebsiella pneumoniae; test: experimental pyelonephritis (polyinfection) in mice, Pseudomonas aeruginosa + Klebsiella pneumoniae; type: in vivo; conditions: percentage of animals, 25 mg/kg s.c.
Method: (§6) Mice are treated intravenously with 10 mg/kg of carrageenin. Seven days later they are infected with a standardised suspension of bacteria. […] Two days after the last treatment, the mice are sacrificed, dissected and examined for the number of germs in the kidneys.

[8] = tested on: Pseudomonas aeruginosa + Escherichia coli; test: experimental pyelonephritis (polyinfection) in mice, Pseudomonas aeruginosa + Escherichia coli; type: in vivo; conditions: percentage of animals, 25 mg/kg s.c.
Method: as §6

[9] = tested on: Klebsiella pneumoniae 329; test: systemic infection in mice, survival, Klebsiella pneumoniae 329; type: in vivo; conditions: fifth day
Method: as §1, §2, §3, §4

Escherichia coli 12-44 = test: in vitro MIC, chessboard microdilution, Escherichia coli 12-44; type: cell-based
Method: as §5

Proteus mirabilis 1077 = test: in vitro MIC, chessboard microdilution, Proteus mirabilis 1077; type: cell-based
Method: as §5

[10] = tested on: anaerobei, for example Bacteroides; conditions: cited from earlier work
Escherichia coli 576 = test: in vitro MIC, chessboard microdilution, Escherichia coli 576; type: cell-based
Method: as §5

[11] = tested on: Klebsiella pneumoniae 327; test: systemic infection in mice, survival, Klebsiella pneumoniae 327; type: in vivo; conditions: fifth day
Method: as §1, §2, §3, §4

Klebsiella pneumoniae 1 = test: in vitro MIC, chessboard microdilution, Klebsiella pneumoniae 1; type: cell-based
Method: as §5

[12] = tested on: Klebsiella pneumoniae 329 + Escherichia coli 205; test: systemic polyinfection in mice, survival, Klebsiella pneumoniae 329 + Escherichia coli 205; type: in vivo; conditions: 100 mg/kg s.c., fifth day
Method: as §1, §2, §3, §4

[13] = tested on: Escherichia coli 205 RTEM^+; test: systemic infection in mice, survival, Escherichia coli 205 RTEM+; type: in vivo; conditions: 40 mg/kg s.c., fifth day
Method: as §1, §2, §3, §4

[14] = tested on: Pseudomonas aeruginosa 410; test: in vitro MIC, chessboard microdilution, Pseudomonas aeruginosa 410; type: cell-based
Method: as §5

Proteus rettgeri 1121 = test: in vitro MIC, chessboard microdilution, Proteus rettgeri 1121; type: cell-based
Method: as §5

[15] = tested on: Klebsiella pneumoniae 1136; test: in vitro MIC, chessboard microdilution, Klebsiella pneumoniae 1136; type: cell-based
Method: as §5

[16] = in combination with Mecillinam 0.25 mcg/ml
[17] = in combination with Gentamicin 0.25 mcg/ml

NC(=O)c1cc[n+](CC2=C(C(=O)O)N3C(=O)[C@@H](NC(=O)[C@@H](c4ccccc4)S(=O)(=O)[O-])[C@H]3SC2)cc1 [Cefsulodin-Na, sodium salt of N-[7β-(α-sulfophenylacetamido)ceph-3-em-3-yl-methyl]-4'-carbamoylpyridinium-4-carboxylate]
surviving animals, antibiotic alone (Escherichia coli 205; 25 mg/kg s.c.): 5%
surviving animals, antibiotic alone (Escherichia coli 205; 40 mg/kg s.c.): 10%
MIC ([1]; Pseudomonas aeruginosa, 1140, alone, 18 hours, 37° C., read-out: MIC, antibiotic alone): 8 µg/mL
MIC, antibiotic A in combination with B ([1]; in combination with Gentamicin 4 mcg/ml): 2 µg/mL
antibiotic action [2]: directed against Gram-negative cocci, Gram-positive cocci and bacteria, and especially against Pseudomonas strains, both carbenicillin-sensitive and carbenicillin-resistant
MIC ([3]; Klebsiella pneumoniae, 1132, alone, 18 hours, 37° C., read-out: MIC, antibiotic alone): 25 µg/mL
MIC, antibiotic A in combination with B [3, 16]: 6.2 µg/mL
MIC (Staphylococcus aureus; Staphylococcus aureus, alone, 18 hours, 37° C., read-out: MIC, antibiotic alone): 3.2 µg/mL
MIC, antibiotic A in combination with B (Staphylococcus aureus; in combination with Mezlocillin 1.6 mcg/ml): 0.2 µg/mL
MIC ([4]; Pseudomonas aeruginosa, G121, alone, 18 hours, 37° C., read-out: MIC, antibiotic alone): 1.2 µg/mL
MIC, antibiotic A in combination with B ([4]; in combination with Mezlocillin 12.5 mcg/ml): 0.04 µg/mL
antibiotic action against enterobacteria [5]: relatively insignificant action
MIC ([6]; Pseudomonas aeruginosa, 799A, alone, 18 hours, 37° C., read-out: MIC, antibiotic alone): 1 µg/mL
MIC, antibiotic A in combination with B ([6]; in combination with Mecillinam 32 mcg/ml): 0.25 µg/mL
Clearance of the kidneys from both micro-organisms, antibiotic alone [7]: 10%
Clearance of the kidneys from both micro-organisms, antibiotic alone [8]: 0%
surviving animals, antibiotic alone ([9]; 40 mg/kg s.c.): 0%
surviving animals, antibiotic alone ([9]; 50 mg/kg s.c.): 0%
surviving animals, antibiotic alone ([9]; 80 mg/kg s.c.): 5%
MIC (Escherichia coli 12-44; Escherichia coli, 1244, alone, 18 hours, 37° C., read-out: MIC, antibiotic alone): 25 µg/mL
MIC, antibiotic A in combination with B (Escherichia coli 12-44; in combination with Mecillinam 0.12 mcg/ml): 12.5 µg/mL
MIC (Proteus mirabilis 1077; Proteus mirabilis, 1077, alone, 18 hours, 37° C., read-out: MIC, antibiotic alone): 50 µg/mL
MIC, antibiotic A in combination with B (Proteus mirabilis 1077; in combination with Mezlocillin 0.25 mcg/ml): 12.5 µg/mL
antibiotic action against anaerobei [10]: relatively insignificant action
MIC (Escherichia coli 576; Escherichia coli, 576, alone, 18 hours, 37° C., read-out: MIC, antibiotic alone): 64 µg/mL
MIC, antibiotic A in combination with B (Escherichia coli 576; [17]): 32 µg/mL
surviving animals, antibiotic alone ([11]; 50 mg/kg s.c.): 0%
surviving animals, antibiotic alone ([11]; 100 mg/kg s.c.): 0%
MIC (Klebsiella pneumoniae 1; Klebsiella pneumoniae, 1, alone, 18 hours, 37° C., read-out: MIC, antibiotic alone): 50 µg/mL
MIC, antibiotic A in combination with B (Klebsiella pneumoniae 1; in combination with Mezlocillin 0.16 mcg/ml): 25 µg/mL
surviving animals, antibiotic alone [12]: 0%
surviving animals, antibiotic alone [13]: 0%
MIC ([14]; Pseudomonas aeruginosa, 410, alone, 18 hours, 37° C., read-out: MIC, antibiotic alone): 2 µg/mL
MIC, antibiotic A in combination with B [14, 17]: 0.06 µg/mL
MIC (Proteus rettgeri 1121; Providencia rettgeri, 1121, alone, 18 hours, 37° C., read-out: MIC, antibiotic alone): 12.5 µg/mL
MIC, antibiotic A in combination with B (Proteus rettgeri 1121; in combination with Gentamicin 0.5 mcg/ml): 0.8 µg/mL
MIC, antibiotic A in combination with B (Proteus rettgeri 1121; in combination with Mecillinam 1.6 mcg/ml): 0.4 µg/mL
MIC ([15]; Klebsiella pneumoniae, 1136, alone, 18 hours, 37° C., read-out: MIC, antibiotic alone): 50 µg/mL
MIC, antibiotic A in combination with B [15, 16]: 12.5 µg/mL
